# Measurements as given in patent US20220386602A1, “METHODS OF USING A COMPOSITION COMPRISING AN ANIONIC PESTICIDE AND A BUFFER” (BASF CORPORATION, priority 2019, published 2022).
# Read-outs that look alike come from different tables or passages of the source.
# Tested on: dicamba sensitive soybean plants
# Settings: dicamba 2240 g ae/ha, AMS 917 g/ha and K2CO3 buffer 4000 g/ha where named, 0.25% v/v non-ionic surfactant (Preference), 8 glass petri plates
# Description: The method of a bioassay humidome study utilizes a treated substrate (e.g. glass, soil, potting mix or plants) placed in a plastic tray covered with a clear plastic humidome (overall size 25 cm wide×50 cm long×20 cm tall; source: Hummert) along with 2 dicamba sensitive soybean plants (1-2 true leaves). Individual humidomes representing different study treatments and replicates are placed in a greenhouse environment (with a typical diurnal temperature range of 25 to 40 C and 75 to 98 % RH).
# After 18 to 24 hours, the sensitive soybean plants are removed from the humidomes and placed on a greenhouse bench for observation and visual response or injury assessment over a 2-3 weeks period. The level of injury to soybean plants is an indirect measurement of amount of dicamba exposure from treated substrate.
Structure (SMILES),% bioassay soybean response [%],% bioassay soybean response (listed as dicamba-BAPMA)
"CN(CCCN)CCCN.COc1c(Cl)ccc(Cl)c1C(=O)O [Dicamba-BAPMA, dicamba N,N-bis(3-aminopropyl)methylamine salt]",9,lower soybean response than dicamba-DGA or dicamba-DMA
"CNC.COc1c(Cl)ccc(Cl)c1C(=O)O [Dicamba-DMA, dicamba dimethylamine]",45,–
